Key:
[1] = tested on: Conduct Disorder, Childhood Onset, Moderate Severity and Attention Deficit Hyperactivity Disorder (ADHD), Combined Type; experiment: Case report: patient with Conduct Disorder and ADHD treated with successive drugs
From the text: A person was diagnosed with ‘Conduct Disorder, Childhood Onset, Moderate Severity’ and ‘Attention Deficit Hyperactivity Disorder (ADHD), Combined Type’ (DSM-IV diagnostic criteria).

[2] = Drug level printed in brackets after the dose in the case report; conditions: valproate 750 mg
Experimental: In addition, they were given lithium at gradually increasing doses up to 1125 mg/day (1.7 ng/mL).

OCCOCCN1CCN(C2=Nc3ccccc3Sc3ccccc32)CC1 [Quetiapine, 11-(4-[2-(2-hydroxyethoxy)ethyl]-1-piperazinyl)dibenzo[b,f][1.4]thiazepine]
clinical response after 90 days ([1]; after 90 days on quetiapine 1000 mg/day and amphetamine-based product 45 mg/day): complete resolution of previous symptoms
clinical response (psychiatric symptoms) ([1]; quetiapine 1000 mg/day (400 mg morning, 600 mg evening) with amphetamine-based product 45 mg/day): dramatic reduction of their psychiatric symptoms
clinical response (aggression) ([1]; quetiapine increased from 50 to 300 mg/day, with amphetamine-based product 60 mg/day): continued to demonstrate aggression

COC(=O)C(c1ccccc1)C1CCCCN1 (centres unmarked) [methylphenidate]
clinical response (earlier treatment) ([1]; methylphenidate taken before the amphetamine-based product and imipramine): eventually became ineffective

CCCC(CCC)C(=O)O [Valproate]
drug level [2]: 115 ng/mL

From patent publication US7338948B2, “Use of quetiapine” (AstraZeneca AB, priority 2000, dated 2008)
